The subject of assay [1] is L. monocytogenes 10403 serotype. The experiment in a line: Murine Listeria monocytogenes challenge model (induction of non-specific resistance). The class given is in vivo, mice. The following applies: 1 μg intravenously in 0.2% TEOA, i.v. challenge with ~10^5 L. monocytogenes two days later, spleen CFUs two days after challenge. As for the experimental part: This example provides experiments evaluating the induction of non-specific resistance in the murine Listeria monocytogenes challenge model performed using the compounds prepared in examples 1, 2 and 3. Mice (5 per group) were treated intravenously with the 1 μg of a cyclic AGP or MPL solublized in 0.2% triethanolamine (TEOA). Two days later the mice were challenged intravenously with a ˜10^5 L. monocytogenes 10403 serotype (stock culture provided by Jory Baldridge, Washington State University, Pullman, Wash.). Two days after the challenge the mice were sacrificed and the number of colony forming units (CFUs) in the spleens of individual mice were determined by plating 10-fold serial dilutions of splenic homogenates on tryptic soy agar plates. The degree of protection afforded by a given AGP or MPL was calculated by subtracting the average number of bacteria per spleen (log 10 value) in the group of mice treated with a given compound, from the average number of bacteria per spleen (log 10 value) in a control group that was “sham” treated with vehicle (0.2% TEOA) prior to challenge with L. monocytogenes.

Assay [2] relates to Influenza A/HK/68. The assay can be described thus: Protection against lethal influenza challenge by prophylactic administration. The note with it: 20 μg intranasally 48 hours prior to lethal intranasal challenge (5 LD50). Format: in vivo, BALB/c mice. How it is done:
This example provides experiments evaluating protection against a lethal challenge with influenza in cyclic AGP-treated mice. BALB/c mice (10 mice per group) were treated intranasally with 20 μg of the compounds of examples 1, 2 and 3, or with MPL, 48 hours prior to an lethal intranasal challenge of Influenza A/HK/68 (5 LD50). Protection was judged by survival, observations of clinical symptoms (ruffled fur, hunched posture and labored breathing), and prevention of weight loss for 21 days following the challenge.

Take `CCCCCCCCCCCC(=O)O[C@H](CCCCCCCCCCC)CC(=O)N[C@H]1[C@H](OC[C@@H]2CCCN2C(=O)C[C@@H](CCCCCCCCCCC)OC(=O)CCCCCCCCCCC)O[C@H](CO)[C@@H](OP(=O)(O)O)[C@@H]1OC(=O)C[C@@H](CCCCCCCCCCC)OC(=O)CCCCCCCCCCC.CCN(CC)CC` [Example 2, N-[(R)-3-Dodecanoyloxytetradecanoyl]-(S)-2-pyrrolidinylmethyl 2-Deoxy-4-O-phosphono-2-[(R)-3-dodecanoyloxy-tetradecanoylamino]-3-O-[(R)-3-dodecanoyloxytetradecanoyl]-β-D-glucopyranoside Triethylammonium Salt]: the “degree of protection: average bacteria per spleen (log 10) in the vehicle control group minus that in the treated group” value in assay [1] amounted to 0.7 log 10 units. For the same compound, the “protection compared with the vehicle control (in words)” value in assay [2] is given as “enhanced protection”. In assay [2] (followed for 21 days), this compound registered a survival rate of 40%.

`CCCCCCCCCCC[C@H](CC(=O)N[C@H]1[C@H](OC[C@@H]2CCCN2C(=O)C[C@@H](CCCCCCCCCCC)OC(=O)CCCCCCCCC)O[C@H](CO)[C@@H](OP(=O)(O)O)[C@@H]1OC(=O)C[C@@H](CCCCCCCCCCC)OC(=O)CCCCCCCCC)OC(=O)CCCCCCCCC.CCN(CC)CC` [Example 3, N-[(R)-3-Decanoyloxytetradecanoyl]-(S)-2-pyrrolidinylmethyl 2-Deoxy-4-O-phosphono-2-[(R)-3-Decanoyloxytetradecanoylamino]-3-O-[(R)-3-Decanoyloxytetradecanoyl]-β-D-glucopyranoside Triethylammonium Salt]: in assay [1], the “degree of protection: average bacteria per spleen (log 10) in the vehicle control group minus that in the treated group” value is around 0.9 log 10 units. The “protection compared with the vehicle control (in words)” value in assay [2] was “enhanced protection”. This compound showed a survival rate in assay [2] (followed for 21 days) of 60%.

As for “N-[(R)-3-Tetradecanoyloxytetradecanoyl]-(S)-2-pyrrolidinylmethyl 2-Deoxy-4-O-phosphono-2-[(R)-3-tetradecanoyloxytetradecanoylamino]-3-O-[(R)-3-tetradecanoyloxytetradecanoyl]-β-D-glucopyranoside Triethylammonium Salt [Example 1]”, the “degree of protection: average bacteria per spleen (log 10) in the vehicle control group minus that in the treated group” value in assay [1] is listed as 0.2 log 10 units. Further, in assay [2] (followed for 21 days), the “survival (in words)” value is on record as “No mice treated with the compound of example 1 survived”.

These data come from patent US7829542B2, “Prophylactic and therapeutic treatment of infectious and other diseases with immunoeffector compounds” (Corixa Corporation, priority 2002, dated 2010).
